Assay: Effect of temperature (and pH) on the stability of the solution (purity)
Type: physicochemical
Conditions: 7% solution in water

CCN(CC)CCOC(=O)COC(=O)Cc1c(C)n(C(=O)c2ccc(Cl)cc2)c2ccc(OC)cc12.Cl
Purity(%) at day 0 (pH 1.0, day 0): 98.1 ± 0.3% | Purity(%) at day 21 (5° C.) (pH 1.0, day 21, 5° C.): 91.9 ± 0.3% | Purity(%) at day 21 (25° C.) (pH 1.0, day 21, 25° C.): 67.3 ± 0.3% | Purity(%) at day 21 (40° C.) (pH 1.0, day 21, 40° C.): 15.6 ± 0.3% | Purity (%) at day 21 (60° C.) (pH 1.0, day 21, 60° C.): 0% | Purity(%) at day 0 (pH 2.0, day 0): 98.3 ± 0.3% | Purity(%) at day 21 (5° C.) (pH 2.0, day 21, 5° C.): 95.7 ± 0.2% | Purity(%) at day 21 (25° C.) (pH 2.0, day 21, 25° C.): 82.2 ± 0.2% | Purity(%) at day 21 (40° C.) (pH 2.0, day 21, 40° C.): 26.7 ± 0.3% | Purity (%) at day 21 (60° C.) (pH 2.0, day 21, 60° C.): 0% | Purity(%) at day 0 (pH 3.0, day 0): 98.5 ± 0.2% | Purity(%) at day 21 (5° C.) (pH 3.0, day 21, 5° C.): 98.0 ± 0.2% | Purity(%) at day 21 (25° C.) (pH 3.0, day 21, 25° C.): 93.0 ± 0.2% | Purity(%) at day 21 (40° C.) (pH 3.0, day 21, 40° C.): 47.7 ± 0.3% | Purity (%) at day 21 (60° C.) (pH 3.0, day 21, 60° C.): 0% | Purity(%) at day 0 (pH 3.7, day 0): 98.7 ± 0.1% | Purity(%) at day 21 (5° C.) (pH 3.7, day 21, 5° C.): 98.2 ± 0.1% | Purity(%) at day 21 (25° C.) (pH 3.7, day 21, 25° C.): 97.1 ± 0.1% | Purity(%) at day 21 (40° C.) (pH 3.7, day 21, 40° C.): 57.6 ± 0.2% | Purity (%) at day 21 (60° C.) (pH 3.7, day 21, 60° C.): 13.9 ± 0.3% | Purity(%) at day 0 (pH 4.0, day 0): 98.7 ± 0.1% | Purity(%) at day 21 (5° C.) (pH 4.0, day 21, 5° C.): 98.4 ± 0.1% | Purity(%) at day 21 (25° C.) (pH 4.0, day 21, 25° C.): 97.4 ± 0.2% | Purity(%) at day 21 (40° C.) (pH 4.0, day 21, 40° C.): 68.7 ± 0.3% | Purity (%) at day 21 (60° C.) (pH 4.0, day 21, 60° C.): 19.2 ± 0.3% | Purity(%) at day 0 (pH 4.3, day 0): 98.8 ± 0.2% | Purity(%) at day 21 (5° C.) (pH 4.3, day 21, 5° C.): 98.5 ± 0.1% | Purity(%) at day 21 (25° C.) (pH 4.3, day 21, 25° C.): 97.5 ± 0.1% | Purity(%) at day 21 (40° C.) (pH 4.3, day 21, 40° C.): 68.6 ± 0.3% | Purity (%) at day 21 (60° C.) (pH 4.3, day 21, 60° C.): 17.9 ± 0.2% | Purity(%) at day 0 (pH 4.6, day 0): 98.8 ± 0.2% | Purity(%) at day 21 (5° C.) (pH 4.6, day 21, 5° C.): 98.4 ± 0.2% | Purity(%) at day 21 (25° C.) (pH 4.6, day 21, 25° C.): 96.5 ± 0.2% | Purity(%) at day 21 (40° C.) (pH 4.6, day 21, 40° C.): 53.7 ± 0.2% | Purity (%) at day 21 (60° C.) (pH 4.6, day 21, 60° C.): 14.8 ± 0.3% | Purity(%) at day 0 (pH 5.0, day 0): 98.6 ± 0.2% | Purity(%) at day 21 (5° C.) (pH 5.0, day 21, 5° C.): 97.1 ± 0.2% | Purity(%) at day 21 (25° C.) (pH 5.0, day 21, 25° C.): 93.8 ± 0.2% | Purity(%) at day 21 (40° C.) (pH 5.0, day 21, 40° C.): 39.8 ± 0.3% | Purity (%) at day 21 (60° C.) (pH 5.0, day 21, 60° C.): 3.2 ± 0.2% | Purity(%) at day 0 (pH 6.0, day 0): 98.4 ± 0.2% | Purity(%) at day 21 (5° C.) (pH 6.0, day 21, 5° C.): 95.8 ± 0.2% | Purity(%) at day 21 (25° C.) (pH 6.0, day 21, 25° C.): 86.9 ± 0.2% | Purity(%) at day 21 (40° C.) (pH 6.0, day 21, 40° C.): 28.8 ± 0.2% | Purity (%) at day 21 (60° C.) (pH 6.0, day 21, 60° C.): 0% | Purity(%) at day 0 (pH 7.0, day 0): 98.1 ± 0.2% | Purity(%) at day 21 (5° C.) (pH 7.0, day 21, 5° C.): 90.2 ± 0.3% | Purity(%) at day 21 (25° C.) (pH 7.0, day 21, 25° C.): 59.7 ± 0.3% | Purity(%) at day 21 (40° C.) (pH 7.0, day 21, 40° C.): 11.2 ± 0.4% | Purity (%) at day 21 (60° C.) (pH 7.0, day 21, 60° C.): 0% | Purity(%) at day 0 (pH 8.0, day 0): 97.7 ± 0.3% | Purity(%) at day 21 (5° C.) (pH 8.0, day 21, 5° C.): 78.5 ± 0.2% | Purity(%) at day 21 (25° C.) (pH 8.0, day 21, 25° C.): 47.9 ± 0.3% | Purity(%) at day 21 (40° C.) (pH 8.0, day 21, 40° C.): 0% | Purity (%) at day 21 (60° C.) (pH 8.0, day 21, 60° C.): 0%

CCN(CC)CCOC(=O)CCc1ccc2cc(OC)ccc2c1.Cl
Purity(%) at day 0 (pH 1.0, day 0): 98.0 ± 0.3% | Purity(%) at day 21 (5° C.) (pH 1.0, day 21, 5° C.): 92.7 ± 0.3% | Purity(%) at day 21 (25° C.) (pH 1.0, day 21, 25° C.): 69.1 ± 0.3% | Purity(%) at day 21 (40° C.) (pH 1.0, day 21, 40° C.): 16.3 ± 0.3% | Purity (%) at day 21 (60° C.) (pH 1.0, day 21, 60° C.): 0% | Purity(%) at day 0 (pH 2.0, day 0): 98.1 ± 0.3% | Purity(%) at day 21 (5° C.) (pH 2.0, day 21, 5° C.): 95.9 ± 0.3% | Purity(%) at day 21 (25° C.) (pH 2.0, day 21, 25° C.): 83.5 ± 0.3% | Purity(%) at day 21 (40° C.) (pH 2.0, day 21, 40° C.): 27.5 ± 0.3% | Purity (%) at day 21 (60° C.) (pH 2.0, day 21, 60° C.): 0% | Purity(%) at day 0 (pH 3.0, day 0): 98.3 ± 0.2% | Purity(%) at day 21 (5° C.) (pH 3.0, day 21, 5° C.): 97.4 ± 0.3% | Purity(%) at day 21 (25° C.) (pH 3.0, day 21, 25° C.): 94.6 ± 0.2% | Purity(%) at day 21 (40° C.) (pH 3.0, day 21, 40° C.): 49.3 ± 0.2% | Purity (%) at day 21 (60° C.) (pH 3.0, day 21, 60° C.): 0% | Purity(%) at day 0 (pH 3.7, day 0): 98.4 ± 0.2% | Purity(%) at day 21 (5° C.) (pH 3.7, day 21, 5° C.): 97.7 ± 0.2% | Purity(%) at day 21 (25° C.) (pH 3.7, day 21, 25° C.): 97.3 ± 0.2% | Purity(%) at day 21 (40° C.) (pH 3.7, day 21, 40° C.): 59.9 ± 0.2% | Purity (%) at day 21 (60° C.) (pH 3.7, day 21, 60° C.): 19.3 ± 0.3% | Purity(%) at day 0 (pH 4.0, day 0): 98.5 ± 0.1% | Purity(%) at day 21 (5° C.) (pH 4.0, day 21, 5° C.): 98.2 ± 0.2% | Purity(%) at day 21 (25° C.) (pH 4.0, day 21, 25° C.): 97.5 ± 0.2% | Purity(%) at day 21 (40° C.) (pH 4.0, day 21, 40° C.): 70.7 ± 0.2% | Purity (%) at day 21 (60° C.) (pH 4.0, day 21, 60° C.): 23.6 ± 0.3% | Purity(%) at day 0 (pH 4.3, day 0): 98.5 ± 0.2% | Purity(%) at day 21 (5° C.) (pH 4.3, day 21, 5° C.): 98.2 ± 0.2% | Purity(%) at day 21 (25° C.) (pH 4.3, day 21, 25° C.): 97.6 ± 0.1% | Purity(%) at day 21 (40° C.) (pH 4.3, day 21, 40° C.): 70.1 ± 0.2% | Purity (%) at day 21 (60° C.) (pH 4.3, day 21, 60° C.): 27.7 ± 0.2% | Purity(%) at day 0 (pH 4.6, day 0): 98.5 ± 0.1% | Purity(%) at day 21 (5° C.) (pH 4.6, day 21, 5° C.): 98.2 ± 0.2% | Purity(%) at day 21 (25° C.) (pH 4.6, day 21, 25° C.): 97.5 ± 0.2% | Purity(%) at day 21 (40° C.) (pH 4.6, day 21, 40° C.): 59.3 ± 0.2% | Purity (%) at day 21 (60° C.) (pH 4.6, day 21, 60° C.): 22.3 ± 0.2% | Purity(%) at day 0 (pH 5.0, day 0): 98.4 ± 0.2% | Purity(%) at day 21 (5° C.) (pH 5.0, day 21, 5° C.): 97.5 ± 0.2% | Purity(%) at day 21 (25° C.) (pH 5.0, day 21, 25° C.): 94.9 ± 0.2% | Purity(%) at day 21 (40° C.) (pH 5.0, day 21, 40° C.): 45.8 ± 0.3% | Purity (%) at day 21 (60° C.) (pH 5.0, day 21, 60° C.): 5.9 ± 0.2% | Purity(%) at day 0 (pH 6.0, day 0): 98.2 ± 0.2% | Purity(%) at day 21 (5° C.) (pH 6.0, day 21, 5° C.): 95.3 ± 0.2% | Purity(%) at day 21 (25° C.) (pH 6.0, day 21, 25° C.): 88.8 ± 0.2% | Purity(%) at day 21 (40° C.) (pH 6.0, day 21, 40° C.): 28.6 ± 0.2% | Purity (%) at day 21 (60° C.) (pH 6.0, day 21, 60° C.): 0% | Purity(%) at day 0 (pH 7.0, day 0): 98.0 ± 0.3% | Purity(%) at day 21 (5° C.) (pH 7.0, day 21, 5° C.): 90.2 ± 0.3% | Purity(%) at day 21 (25° C.) (pH 7.0, day 21, 25° C.): 60.9 ± 0.2% | Purity(%) at day 21 (40° C.) (pH 7.0, day 21, 40° C.): 17.4 ± 0.3% | Purity (%) at day 21 (60° C.) (pH 7.0, day 21, 60° C.): 0% | Purity(%) at day 0 (pH 8.0, day 0): 97.7 ± 0.3% | Purity(%) at day 21 (5° C.) (pH 8.0, day 21, 5° C.): 79.7 ± 0.3% | Purity(%) at day 21 (25° C.) (pH 8.0, day 21, 25° C.): 49.9 ± 0.3% | Purity(%) at day 21 (40° C.) (pH 8.0, day 21, 40° C.): 0% | Purity (%) at day 21 (60° C.) (pH 8.0, day 21, 60° C.): 0%

Source: US20230157952A1, “METHOD FOR IMPROVING THE STABILITY OF A PHARMACEUTICAL COMPOSITION COMPRISING A HIGH PENETRATION DRUG, AND THE PHARMACEUTICAL COMPOSITION OBTAINED THEREFROM” (Techfields Inc., priority 2020, published 2023)
